“Also recorded” adds a separate entry of the source.
System: 4E10 mAb
Test: Binding of chromophore labeled tetramers to 4E10 antibody coated beads
Details: chromophore on tetramer-SA complex
Excerpt: FIGS. 6A-6F: Binding of chromophore labeled tetramers to 4E10 antibody coated beads. In all panels, shaded curves show binding to control Ig-coated beads and solid lines show binding to 4E10 coated beads. FIG. 6A. 2F5-epitope tetramers labeled with APC. FIG. 6B. 2F5-epitope tetramers labeled with PE-AF680. FIG. 6C. V3-epitope tetramers labeled with PE-AF750. FIG. 6D. Scrambled 2F5-epitope tetramers labeled with APC. FIG. 6E. Scrambled 2F5-epitope tetramers labeled with PE-AF680. FIG. 6F. Scrambled V3-epitope tetramers labeled with PE-AF750. Thus, 4E10 mAb binds to phycoerythrin on any tetramer-SA complex.
The specificity of the tetramers can be determined using a panel of murine hybridoma cell lines that produce either antibodies that react with the 2F5 epitope (5A9), the 4E10 epitope of HIV gp41 (10B12) or the V3 region of HIV gp120 (7B9 or F39F). Using these cell lines, the B cell tetramer can be bound to the cell line and assayed for binding by, for example, flow cytometry (FIGS. 4A and 4B). Alternatively, the 2F5, 4E10 anti-MPER and 7B9 anti-V3 mAbs can be conjugated to, for example, a […], and the specificity of tetramer binding to the beads determined (FIG. 5).
Studies conducted have shown that a mimetope of the MPER 4E10 region is phycoerythrin, in that 4E10 mAb coated beads bound tetramer labeled with phycoerythrin but not allophycocyanin (APC) (FIG. 6). […]

Substance | binding to 4E10 mAb coated beads
allophycocyanin [allophycocyanin (APC)] | not
phycoerythrin | binds; also recorded: bound

Reference: patent US20090136522A1, “Multivalent Immunogen” (priority 2006, published 2009)
